Like-named read-outs stand apart in the source and are kept apart here.

Test [1] concerns the target T1, mouse kappa opioid receptor (mKOR) (Mus musculus, UniProt P33534).
T1 construct: a mouse thymoma cell line that expresses only the kappa-opioid receptor and no other opioid receptor subtype; host or cells: R1.G1 mouse thymoma cells
The test is described as follows: Inhibition of forskolin-stimulated cAMP production in R1.G1 cells (TR-FRET cAMP immunoassay). In kind it is cell-based. (Cyclic AMP is a second messenger, typically raised through Gs and lowered through Gi signalling.)

Test [2] addresses T2, human kappa opioid receptor (hKOR) (Homo sapiens, UniProt P41145).
T2 construct: expressed in transfected cells; host or cells: HEK-293 cells (ATCC), transient transfection with pcDNA3-hOPRK1
Description: NFAT-luciferase reporter assay in HEK-293 cells transfected with human kappa opioid receptor and chimeric G-protein. In kind it is cell-based. The following applies: for EC50: transfected HEK-293 cells, luciferase reporter. In general terms: Reporter assays use an easily measured gene product as a stand-in for the process of interest.

Setting [3] is: HEK293, percent maximal activation compared to full induction by known kappa agonists, read-out: hKOR Efficacy(%).
Where [4] appears, read: R1.G1 cells, read-out: mKOR Efficacy(%).
The mark [5] stands for this setting: percent maximal activation compared to full induction by known kappa agonists.

T2 sequence (P41145 whole entry): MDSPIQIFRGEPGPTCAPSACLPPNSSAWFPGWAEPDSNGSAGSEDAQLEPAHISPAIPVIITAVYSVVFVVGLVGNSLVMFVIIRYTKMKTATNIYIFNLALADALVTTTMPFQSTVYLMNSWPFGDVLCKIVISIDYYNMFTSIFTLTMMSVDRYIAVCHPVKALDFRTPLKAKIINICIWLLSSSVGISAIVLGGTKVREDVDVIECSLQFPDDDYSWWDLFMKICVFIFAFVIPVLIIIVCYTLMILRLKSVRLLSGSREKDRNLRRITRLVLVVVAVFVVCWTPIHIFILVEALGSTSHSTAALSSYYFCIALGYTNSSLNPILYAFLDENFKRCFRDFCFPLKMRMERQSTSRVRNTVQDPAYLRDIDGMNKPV
T1 sequence (P33534 whole entry): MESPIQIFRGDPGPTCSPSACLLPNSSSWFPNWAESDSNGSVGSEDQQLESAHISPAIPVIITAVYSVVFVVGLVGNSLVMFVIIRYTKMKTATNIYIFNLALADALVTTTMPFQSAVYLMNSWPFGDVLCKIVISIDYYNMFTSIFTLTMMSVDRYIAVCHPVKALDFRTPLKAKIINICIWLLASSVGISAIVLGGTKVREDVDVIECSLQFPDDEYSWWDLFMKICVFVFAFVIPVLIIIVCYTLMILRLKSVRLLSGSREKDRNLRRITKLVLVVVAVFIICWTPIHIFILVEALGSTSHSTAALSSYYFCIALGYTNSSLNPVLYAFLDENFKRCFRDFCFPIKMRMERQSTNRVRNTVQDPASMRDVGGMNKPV

As to `CC(C)C[C@@H](NC(=O)[C@@H](Cc1ccccc1)NC(=O)[C@H](N)Cc1ccccc1)C(=O)N[C@H](CCCN)C(=O)N1CCC(N2CCC[C@H]2C(N)=O)CC1` [Compound 14, D-Phe-D-Phe-D-Leu-D-Orn-[N-(4-piperidinyl)-L-proline]-NH2], in test [1] (R1.G1 cells), the “mKOR Efficacy(%)” value is 96%. For the same compound, the Emax in test [2] (setting [3]) amounted to 105%. Also, in test [2] (read-out: hKOR EC50), the concentration giving a half-maximal response (EC50) stood at 0.21 nM.
Turning to `CC(C)C[C@@H](NC(=O)[C@@H](Cc1ccccc1)NC(=O)[C@H](N)Cc1ccccc1)C(=O)N[C@H](CCCN)C(=O)N1CCCN(C(=N)N)CC1` [Compound 16, D-Phe-D-Phe-D-Leu-D-Orn-[4-Amidinohomopiperazine amide]], the Emax in test [1] (setting [4]) is 99%; in test [2] (setting [3]), 90%. In test [2] (read-out: hKOR EC50), the half-maximal effective concentration (EC50) came out at 0.12 nM.
Take `CCN1CCCN(C(=O)[C@@H](CCCN)NC(=O)[C@@H](CC(C)C)NC(=O)[C@@H](Cc2ccccc2)NC(=O)[C@H](N)Cc2ccccc2)CC1` [Compound 18, D-Phe-D-Phe-D-Leu-D-Orn-[4-ethylhomopiperazine amide]]: the “mKOR Efficacy(%)” value in test [1] (R1.G1 cells) is 99%. For the same compound, in test [2] (setting [3]), the Emax is 99%.
Regarding `CNC(=N)N1CCCN(C(=O)[C@@H](CCCN)NC(=O)[C@@H](CC(C)C)NC(=O)[C@@H](Cc2ccccc2)NC(=O)[C@H](N)Cc2ccccc2)CC1` [Compound 19, D-Phe-D-Phe-D-Leu-D-Orn-[4-(N-methyl)amidinohomopiperazine amide]], the “mKOR Efficacy(%)” value in test [1] (R1.G1 cells) worked out at 101%. Besides, in test [2] (setting [3]), the Emax was 93%. Besides, in test [2] (read-out: hKOR EC50), the EC50 worked out at 0.21 nM.
For `CC(C)C[C@@H](NC(=O)[C@@H](Cc1ccccc1)NC(=O)[C@H](N)Cc1ccccc1)C(=O)N[C@H](CCCNC(C)C)C(=O)N1CCC(N)(C(=O)O)CC1` [Compound 20, D-Phe-D-Phe-D-Leu-(δ-iPr)D-Orn-[omega(4-Aminopiperidine-4-carboxylic acid)]-OH], the “mKOR Efficacy(%)” value in test [1] (R1.G1 cells) is 92%. For the same compound, in test [2] (setting [3]), the Emax is 97%. In addition, the concentration for a half-maximal effect (EC50) in test [2] (read-out: hKOR EC50) turned out to be 0.15 nM.
For the compound `CC(C)C[C@@H](NC(=O)[C@@H](Cc1ccccc1)NC(=O)[C@H](N)Cc1ccccc1)C(=O)N[C@H](CCCCN)C(=O)NCC1OCCO1` [Compound 25], the “mKOR Efficacy(%)” value in test [1] (R1.G1 cells) amounted to 85%. In addition, the “hKOR Efficacy(%)” value in test [2] (setting [5]) was 98%.
In the same order, the values of `CC(C)C[C@@H](NC(=O)[C@@H](Cc1ccccc1)NC(=O)[C@H](N)Cc1ccccc1)C(=O)N[C@H](CCCCN)C(=O)N1CCN(c2ncccn2)CC1` [Compound 26, D-Phe-D-Phe-D-Leu-D-Lys-[2-(piperazin-1-yl)pyrimidine amide]] are 78% and 98%.
The matching figures for `CC(C)C[C@@H](NC(=O)[C@@H](Cc1ccccc1)NC(=O)[C@H](N)Cc1ccccc1)C(=O)N[C@H](CCCCN)C(=O)N1CCN(c2cnccn2)CC1` [Compound 27, D-Phe-D-Phe-D-Leu-D-Lys-[2-(piperazin-1-yl)pyrazine amide]]: 85% and 100%.
The matching figures for `CC(C)C[C@@H](NC(=O)[C@@H](Cc1ccccc1)NC(=O)[C@H](N)Cc1ccccc1)C(=O)N[C@H](CCCCN)C(=O)N1CCN(c2ccccn2)CC1` [Compound 28, D-Phe-D-Phe-D-Leu-D-Lys-[1-(pyridin-2-yl)piperazine amide]]: 89% and 100%.
Turning to `CC(C)C[C@@H](NC(=O)[C@@H](Cc1ccccc1)NC(=O)[C@H](N)Cc1ccccc1)C(=O)N[C@H](CCCCN)C(=O)N1CCN(c2nccs2)CC1` [Compound 29, D-Phe-D-Phe-D-Leu-D-Lys-[2-(piperazin-1-yl)thiazole amide]], the “mKOR Efficacy(%)” value in test [1] (R1.G1 cells) turned out to be 85%. Also, the “hKOR Efficacy(%)” value in test [2] (setting [5]) was found to be 92%.
Consider `CC(C)C[C@@H](NC(=O)[C@@H](Cc1ccccc1)NC(=O)[C@H](N)Cc1ccccc1)C(=O)N[C@H](CCCCN)C(=O)N1CCN(S(=O)(=O)N(C)C)CC1` [Compound 30, D-Phe-D-Phe-D-Leu-D-Lys-[N,N-dimethylpiperazine-1-sulfonamide amide]], for which the “mKOR Efficacy(%)” value in test [1] (R1.G1 cells) is recorded as 86%. Further, the “hKOR Efficacy(%)” value in test [2] (setting [5]) was 101%.
In the same order, the values of `CC(C)C[C@@H](NC(=O)[C@@H](Cc1ccccc1)NC(=O)[C@H](N)Cc1ccccc1)C(=O)N[C@H](CCCCN)C(=O)N1CCN(S(C)(=O)=O)CC1` [Compound 31, D-Phe-D-Phe-D-Leu-D-Lys-[1-(methylsulfonyl)piperazine amide]] are 82% and 100%.
Take `CC(C)C[C@@H](NC(=O)[C@@H](Cc1ccccc1)NC(=O)[C@H](N)Cc1ccccc1)C(=O)N[C@H](CCCCN)C(=O)N1CCN(S(=O)(=O)c2ccccc2)CC1` [Compound 32, D-Phe-D-Phe-D-Leu-D-Lys-[1-(phenylsulfonyl)piperazine amide]]: the “mKOR Efficacy(%)” value in test [1] (R1.G1 cells) is reported as 87%. Moreover, in test [2] (setting [5]), the “hKOR Efficacy(%)” value is 101%.
`CC(C)C[C@@H](NC(=O)[C@@H](Cc1ccccc1)NC(=O)[C@H](N)Cc1ccccc1)C(=O)N[C@H](CCCCN)C(=O)N1CCN(C(=O)c2ccccc2)CC1` [Compound 33, D-Phe-D-Phe-D-Leu-D-Lys-[phenyl(piperazin-1-yl)methanone amide]]: the “mKOR Efficacy(%)” value in test [1] (R1.G1 cells) stood at 92%. Besides, the “hKOR Efficacy(%)” value in test [2] (setting [5]) turned out to be 94%.
For the compound `CC(C)C[C@@H](NC(=O)[C@@H](Cc1ccccc1)NC(=O)[C@H](N)Cc1ccccc1)C(=O)N[C@H](CCCCN)C(=O)N1CCS(=O)(=O)CC1` [Compound 34, D-Phe-D-Phe-D-Leu-D-Lys-[thiolmorpholine-1,1-dioxide amide]], in test [1] (R1.G1 cells), the “mKOR Efficacy(%)” value amounted to 89%. Further, the “hKOR Efficacy(%)” value in test [2] (setting [5]) is recorded as 103%.
In the case of `CC(C)C[C@@H](NC(=O)[C@@H](Cc1ccccc1)NC(=O)[C@H](N)Cc1ccccc1)C(=O)N[C@H](CCCCN)C(=O)NCc1ccc(C(F)(F)F)nc1` [Compound 35, D-Phe-D-Phe-D-Leu-D-Lys-[6-trifluoromethyl-3-aminomethylpyridine amide]], the “mKOR Efficacy(%)” value in test [1] (R1.G1 cells) is given as 85%. In addition, the “hKOR Efficacy(%)” value in test [2] (setting [5]) was 95%.
The matching figures for `CC(C)C[C@@H](NC(=O)[C@@H](Cc1ccccc1)NC(=O)[C@H](N)Cc1ccccc1)C(=O)N[C@H](CCCCN)C(=O)NCc1ccc2[nH]c(=O)[nH]c2c1` [Compound 37, D-Phe-D-Phe-D-Leu-D-Lys-[5-(aminomethyl)-1H-benzo[d]imidazol-2(3H)-one amide]]: 87% and 99%.
Take `Cc1cnc(CNC(=O)[C@@H](CCCCN)NC(=O)[C@@H](CC(C)C)NC(=O)[C@@H](Cc2ccccc2)NC(=O)[C@H](N)Cc2ccccc2)cn1` [Compound 38]: the Emax in test [1] (setting [4]) was 87%; in test [2] (setting [3]), 100%.
`CC(C)C[C@@H](NC(=O)[C@H](N)Cc1ccccc1)C(=O)N[C@H](CCCN)C(=O)N[C@@H](CCCCNC(=O)[C@@H](CCCN)NC(=O)[C@@H](CC(C)C)NC(=O)[C@@H](Cc1ccccc1)NC(=O)[C@H](N)Cc1ccccc1)C(=O)O` [Compound 40]: the Emax in test [1] (read-out: mKOR Efficacy(%), R1.G1 cells) was 96%; in test [2] (HEK293, read-out: hKOR Efficacy(%), percent maximal activation compared to full induction by known kappa agonists), 83%. The half-maximal effective concentration (EC50) in test [2] (hKOR EC50 (nM)) is 0.26 nM.
Take `CC(C)C[C@@H](NC(=O)[C@H](N)Cc1ccccc1)C(=O)N[C@H](CCCN)C(=O)N[C@@H](CCCCNC(=O)[C@@H](CCCN)NC(=O)[C@@H](CC(C)C)NC(=O)[C@@H](Cc1ccccc1)NC(=O)[C@H](N)Cc1ccccc1)C(=O)O` [Compound 41]: the “mKOR Efficacy(%)” value in test [1] (R1.G1 cells) turned out to be 100%. Also, the 50% effective concentration (EC50) in test [2] (hKOR EC50 (nM)) worked out at 0.2 nM. The “hKOR Efficacy(%)” value in test [2] (setting [5]) turned out to be 89%.

Usually EC50 stands for the concentration giving half of the maximal effect.

Values taken from patent US20140357579A1, “SYNTHETIC PEPTIDE AMIDES AND DIMERS THEREOF” (priority 2006, published 2014).
